Data published in the NIST ThermoML archive (doi:10.1016/j.jct.2016.04.008).

Conditions: Metastable liquid; for mass density: 100 kPa, Buoyancy - hydrostatic balance with magnetic suspension - one sinker

CCCn1cc[n+](C)c1.F[B-](F)(F)F [1-propyl-3-methylimidazolium tetrafluoroborate]
Conditions | mass density [kg/m3]
263.48 K | 1263.82
267.76 K | 1260.36
273.92 K | 1255.4
278.64 K | 1251.98
283.36 K | 1248.34
288.62 K | 1245.07
293.07 K | 1241.48
298.18 K | 1237.91
303.09 K | 1234.13
308.11 K | 1230.24
313.13 K | 1226.49
318 K | 1222.86
322.91 K | 1219.26
328.37 K | 1215.54
333.47 K | 1211.69
337.99 K | 1208.71
342.79 K | 1205.15
348.01 K | 1201.38
353 K | 1198.22
359.33 K | 1194.13
363.9 K | 1190.61

surface tension liquid-gas [mN/m]
Conditions | Ring tensiometer | Willhelmy plate method
273.75 K | – | 50.71
273.79 K | 51.33 | –
278.5 K | – | 50.51
278.59 K | 51.07 | –
283.29 K | – | 50.25
283.35 K | 50.8 | –
288.51 K | – | 49.99
288.6 K | 50.51 | –
293.05 K | – | 49.65
293.08 K | 50.23 | –
298.18 K | 49.96 | –
298.19 K | – | 49.5
303.09 K | 49.6 | 49.11
308.05 K | – | 48.73
308.08 K | 49.16 | –
313.06 K | – | 48.58
313.09 K | 49.02 | –
318 K | 48.72 | 48.32
322.85 K | – | 47.95
322.87 K | 48.32 | –
328.24 K | – | 47.64
328.31 K | 47.95 | –
333.32 K | – | 47.28
333.5 K | 47.54 | –
338.08 K | – | 47.1
338.14 K | 47.43 | –
342.74 K | – | 46.86
342.81 K | 46.8 | –
348.07 K | 46.79 | –
348.15 K | – | 46.48
353.02 K | 46.07 | –
353.21 K | – | 46.16
358.98 K | 45.94 | –
359.05 K | – | 45.89
362.96 K | – | 45.51
363.8 K | 45.67 | –
